Data reported in patent publication US20110008465A1, “SESQUITERPENE FORMULATIONS, KITS AND METHODS OF USE THEREOF” (priority 2007, published 2011).

Key:
tumor cell lines = experiment: Comparative potentiating effect of beta-caryophyllene and Tesmilifene (DPPE) combined with 5 antitumor classes; type: cell-based
Experimental: (§1) Each solution was prepared fresh and use within 1 hour after preparation.
(§2) Cells were then harvested using trypsine-EDTA. Cells were counted using a hemocytometer and resuspended in DMEM+10% FBS medium.
(§3) Proliferation assay: Increasing concentrations of the anticancer agents and/or beta-caryophyllene were added to 96-well plate (100 μL per well). The final concentration of solvent in the culture medium was maintained below 0.5% (volume/volume) to avoid solvent toxicity.
(§4) The cells were incubated for 48 h at 37° C. and 5% CO2. Cytotoxicity was assessed using the resazurin reduction test (O'Brien et al., 2000). Fluorescence was measured on an automated 96-well Fluoroskan Ascent FI™ plate reader (Labsystems) using excitation and emission wavelengths of 530 nm and 590 nm, respectively. Resazurin was then removed.
(§5) Microplates were frozen at −20° C. overnight. Plates were thawed, a volume of 100 μl of 0.01% SDS in water was added to the wells, the plates were shaken at room temperature for 3 hours and then frozen once more at −20° C. overnight. […] Plates were shaken in the dark (at room temperature) for at least 2 hours, and fluorescence was measured on an automated 96-well Fluoroskan Ascent FI™ plate reader (Labsystems) using excitation and emission wavelengths of 360 nm and 460 nm, respectively.
(§6) Results were analyzed using the Chou and Talalay method (9) and may be interpreted as follow: Cl>1 represents an antagonist effect of beta-caryophyllene with the corresponding anticancer agent; Cl=1 represents an additive effect of beta-caryophyllene with the corresponding anticancer agent; Cl<1 represents a potentiating effect of beta-caryophyllene with the corresponding anticancer agent.

A-549 (lung cancer) = experiment: Chou and Talalay combination assay with beta-caryophyllene; type: cell-based, human; conditions: anticancer drug in combination with beta-caryophyllene; Chou and Talalay CI; 48 h
Experimental: as §1, §2, §3, §4, §5, §6

[1] = tested on: MDA-MB-231 (breast cancer); experiment: as above; type: cell-based, human; conditions: anticancer drug in combination with beta-caryophyllene; Chou and Talalay CI; 48 h
Experimental: as §1, §2, §3, §4, §5, §6

DLD-1 (colon cancer) = experiment: as above; type: cell-based, human; conditions: anticancer drug in combination with beta-caryophyllene; Chou and Talalay CI; 48 h
Experimental: as §1, §2, §3, §4, §5, §6

PA-1 (ovary cancer) = experiment: as above; type: cell-based, human; conditions: anticancer drug in combination with beta-caryophyllene; Chou and Talalay CI; 48 h
Experimental: as §1, §2, §3, §4, §5, §6

MCF-7 (breast cancer) = experiment: as above; type: cell-based, human; conditions: anticancer drug in combination with beta-caryophyllene; Chou and Talalay CI; 48 h
Experimental: as §1, §2, §3, §4, §5, §6

PC-3 (prostate cancer) = experiment: as above; type: cell-based, human; conditions: anticancer drug in combination with beta-caryophyllene; Chou and Talalay CI; 48 h
Experimental: as §1, §2, §3, §4, §5

[2] = tested on: GL-261 (murine glioblastoma); experiment: as above; type: cell-based; conditions: anticancer drug in combination with beta-caryophyllene; Chou and Talalay CI; 48 h
Experimental: as §1, §2, §3, §4, §5, §6

B16 (murine melanoma) = experiment: as above; type: cell-based; conditions: anticancer drug in combination with beta-caryophyllene; Chou and Talalay CI; 48 h
Experimental: as §1, §2, §3, §4, §5, §6

[3] = tested on: U-251 (human glioblastoma); experiment: as above; type: cell-based; conditions: anticancer drug in combination with beta-caryophyllene; Chou and Talalay CI; 48 h
Experimental: as §1, §2, §3, §4, §5, §6

MEL-2 (human melanoma) = experiment: as above; type: cell-based; conditions: anticancer drug in combination with beta-caryophyllene; Chou and Talalay CI; 48 h
Experimental: as §1, §2, §3, §4, §5, §6

CCN(CC)CCOc1ccc(Cc2ccccc2)cc1 [DPPE, Tesmilifene]
Alkylating agents % (tumor cell lines; class (1) Very High): 25%
Alkylating agents Total (60) (tumor cell lines; class (1) Very High): 15
Antimitotic agents % (tumor cell lines; class (1) Very High): 25%
Antimitotic agents Total (40) (tumor cell lines; class (1) Very High): 10
RNA/DNA antimetabolites % (tumor cell lines; class (1) Very High): 30%
RNA/DNA antimetabolites Total (20) (tumor cell lines; class (1) Very High): 6
Topoisomerase II inhibitors % (tumor cell lines; class (1) Very High): 18%
Topoisomerase II inhibitors Total (40) (tumor cell lines; class (1) Very High): 7
kinase inhibitors % (tumor cell lines; class (1) Very High): 30%
kinase inhibitors Total (20) (tumor cell lines; class (1) Very High): 6
Alkylating agents % (tumor cell lines; class (2) High): 20%
Alkylating agents Total (60) (tumor cell lines; class (2) High): 12
Antimitotic agents % (tumor cell lines; class (2) High): 20%
Antimitotic agents Total (40) (tumor cell lines; class (2) High): 8
RNA/DNA antimetabolites % (tumor cell lines; class (2) High): 15%
RNA/DNA antimetabolites Total (20) (tumor cell lines; class (2) High): 3
Topoisomerase II inhibitors % (tumor cell lines; class (2) High): 13%
Topoisomerase II inhibitors Total (40) (tumor cell lines; class (2) High): 5
kinase inhibitors % (tumor cell lines; class (2) High): 25%
kinase inhibitors Total (20) (tumor cell lines; class (2) High): 5
Alkylating agents % (tumor cell lines; class (3) Moderate): 23%
Alkylating agents Total (60) (tumor cell lines; class (3) Moderate): 14
Antimitotic agents % (tumor cell lines; class (3) Moderate): 30%
Antimitotic agents Total (40) (tumor cell lines; class (3) Moderate): 12
RNA/DNA antimetabolites % (tumor cell lines; class (3) Moderate): 15%
RNA/DNA antimetabolites Total (20) (tumor cell lines; class (3) Moderate): 3
Topoisomerase II inhibitors % (tumor cell lines; class (3) Moderate): 30%
Topoisomerase II inhibitors Total (40) (tumor cell lines; class (3) Moderate): 12
kinase inhibitors % (tumor cell lines; class (3) Moderate): 45%
kinase inhibitors Total (20) (tumor cell lines; class (3) Moderate): 9
Alkylating agents % (tumor cell lines; class (4) Weak): 10%
Alkylating agents Total (60) (tumor cell lines; class (4) Weak): 6
Antimitotic agents % (tumor cell lines; class (4) Weak): 15%
Antimitotic agents Total (40) (tumor cell lines; class (4) Weak): 6
RNA/DNA antimetabolites % (tumor cell lines; class (4) Weak): 10%
RNA/DNA antimetabolites Total (20) (tumor cell lines; class (4) Weak): 2
Topoisomerase II inhibitors % (tumor cell lines; class (4) Weak): 10%
Topoisomerase II inhibitors Total (40) (tumor cell lines; class (4) Weak): 4
kinase inhibitors % (tumor cell lines; class (4) Weak): 0%
kinase inhibitors Total (20) (tumor cell lines; class (4) Weak): 0
Alkylating agents % (tumor cell lines; class (5) Additive effect): 5%
Alkylating agents Total (60) (tumor cell lines; class (5) Additive effect): 3
Antimitotic agents % (tumor cell lines; class (5) Additive effect): 0%
Antimitotic agents Total (40) (tumor cell lines; class (5) Additive effect): 0
RNA/DNA antimetabolites % (tumor cell lines; class (5) Additive effect): 0%
RNA/DNA antimetabolites Total (20) (tumor cell lines; class (5) Additive effect): 0
Topoisomerase II inhibitors % (tumor cell lines; class (5) Additive effect): 5%
Topoisomerase II inhibitors Total (40) (tumor cell lines; class (5) Additive effect): 2
kinase inhibitors % (tumor cell lines; class (5) Additive effect): 0%
kinase inhibitors Total (20) (tumor cell lines; class (5) Additive effect): 0
Alkylating agents % (tumor cell lines; class (6) Antagonist effect): 17%
Alkylating agents Total (60) (tumor cell lines; class (6) Antagonist effect): 10
Antimitotic agents % (tumor cell lines; class (6) Antagonist effect): 10%
Antimitotic agents Total (40) (tumor cell lines; class (6) Antagonist effect): 4
RNA/DNA antimetabolites % (tumor cell lines; class (6) Antagonist effect): 30%
RNA/DNA antimetabolites Total (20) (tumor cell lines; class (6) Antagonist effect): 6
Topoisomerase II inhibitors % (tumor cell lines; class (6) Antagonist effect): 25%
Topoisomerase II inhibitors Total (40) (tumor cell lines; class (6) Antagonist effect): 10
kinase inhibitors % (tumor cell lines; class (6) Antagonist effect): 0%
kinase inhibitors Total (20) (tumor cell lines; class (6) Antagonist effect): 0
drugs exhibiting a potentiating effect when combined (tumor cell lines; drugs tested at their IC50 values): 81%

CN(C)/N=N/c1[nH]cnc1C(N)=O [Dacarbazine, dacarbazine]
Potentiating activity A-549 (A-549 (lung cancer)): (2) (High: CI below 0.5 at IC50)
Potentiating activity MDA [1]: (1) (Very High: CI equal or below 1 at IC20 and Cl below 0.6 to IC50)
Potentiating activity DLD-1 (DLD-1 (colon cancer)): (3) (Moderate: 0.5 < CI < 0.8 at IC50)
Potentiating activity PA-1 (PA-1 (ovary cancer)): (1) (Very High: potentiating or additive activity to IC20 and CI < 0.6 to IC50)
Potentiating activity MCF-7 (MCF-7 (breast cancer)): (1) (Very High: CI equal or below 1 at IC20 and Cl below 0.6 to IC50)
Potentiating activity PC-3 (PC-3 (prostate cancer)): (4) (Weak: 0.8 < CI < 1 to IC50)
Potentiating activity GL-261 [2]: (2) (High: CI < 0.5 to IC50)
Potentiating activity B16 (B16 (murine melanoma)): (1) (Very High: potentiating or additive activity to IC20 and CI < 0.6 to IC50)
Potentiating activity U-251 [3]: (1) (Very High: potentiating or additive activity to IC20 and CI < 0.6 to IC50)
Potentiating activity MEL-2 (MEL-2 (human melanoma)): (1) (Very High: potentiating or additive activity to IC20 and CI < 0.6 to IC50)

vinblastine sulfate salt
Potentiating activity A-549 (A-549 (lung cancer)): (1) (Very High: CI equal or below 1 at IC20 and Cl below 0.6 to IC50)
Potentiating activity MDA [1]: (1) (Very High: CI equal or below 1 at IC20 and Cl below 0.6 to IC50)
Potentiating activity DLD-1 (DLD-1 (colon cancer)): (1) (Very High: CI equal or below 1 at IC20 and Cl below 0.6 to IC50)
Potentiating activity PA-1 (PA-1 (ovary cancer)): (1) (Very High: potentiating or additive activity to IC20 and CI < 0.6 to IC50)
Potentiating activity MCF-7 (MCF-7 (breast cancer)): (1) (Very High: CI equal or below 1 at IC20 and Cl below 0.6 to IC50)
Potentiating activity PC-3 (PC-3 (prostate cancer)): (3) (Moderate: 0.5 < CI < 0.8 to IC50)
Potentiating activity GL-261 [2]: (1) (Very High: potentiating or additive activity to IC20 and CI < 0.6 to IC50)
Potentiating activity B16 (B16 (murine melanoma)): (1) (Very High: potentiating or additive activity to IC20 and CI < 0.6 to IC50)
Potentiating activity U-251 [3]: (1) (Very High: potentiating or additive activity to IC20 and CI < 0.6 to IC50)
Potentiating activity MEL-2 (MEL-2 (human melanoma)): (1) (Very High: potentiating or additive activity to IC20 and CI < 0.6 to IC50)

O=C(O)CCCc1ccc(N(CCCl)CCCl)cc1 [Chlorambucil, chlorambucil]
Potentiating activity A-549 (A-549 (lung cancer)): (3) (Moderate: 0.5 < CI < 0.8 at IC50)
Potentiating activity MDA [1]: (1) (Very High: CI equal or below 1 at IC20 and Cl below 0.6 to IC50)
Potentiating activity DLD-1 (DLD-1 (colon cancer)): (3) (Moderate: 0.5 < CI < 0.8 at IC50)
Potentiating activity PA-1 (PA-1 (ovary cancer)): (3) (Moderate: 0.5 < CI < 0.8 to IC50)
Potentiating activity MCF-7 (MCF-7 (breast cancer)): (1) (Very High: CI equal or below 1 at IC20 and Cl below 0.6 to IC50)
Potentiating activity GL-261 [2]: (6) (Antagonist effect: CI > 1)
Potentiating activity B16 (B16 (murine melanoma)): (1) (Very High: potentiating or additive activity to IC20 and CI < 0.6 to IC50)
Potentiating activity U-251 [3]: (2) (High: CI < 0.5 to IC50)
Potentiating activity MEL-2 (MEL-2 (human melanoma)): (1) (Very High: potentiating or additive activity to IC20 and CI < 0.6 to IC50)
